The results in this text go back to patent US8741905B2, “Compounds and methods for treating autoimmune diseases” (The Broad Institute, Inc., priority 2010, dated 2014).

By EC50 is commonly meant the midpoint of the concentration-response curve.

Bounds are passed on as bounds.

Assay [1] concerns INS-1E cells. Kind of assay: Caspase-3 activity assay (Caspase-Glo 3/7) in cytokine-treated INS-1E cells. The settings on record: cytokines, 48 h, Caspase-Glo 3/7. Format: cell-based, rat. On the procedure:
INS-1E cells were seeded at 5,000 cells per well in white optical 384-well plates and treated as described for highthroughput screening. After treatment with cytokines and compounds for 48 h, medium was removed and 20 μL Caspase-Glo 3/7 reagent was added. Luminescence was measured after 2 h of incubation using an EnVision plate reader.

The test system of assay [2] is INS-1E cells. Kind of assay: Cellular ATP levels (CellTiter-Glo) in cytokine-treated INS-1E cells; suppression of cytokine-induced beta-cell apoptosis. Format: cell-based, rat. The procedure:
The compounds were analyzed for activity utilizing methods described in Chou et al. (ACS Chem. Biol. 2010 Aug. 20; 5(8):729-34).
INS-1E cells were seeded at 10,000 cells per well using a Multidrop Combi (Thermo Labsystems) in white optical 384-well plates (Corning Life Sciences). After overnight incubation, medium was removed and 50 μL of RPMI containing 1% FBS and a combination of cytokines (10 ng mL-^1 IL-1β, 50 ng mL^−1 IFN-γ, 25 ngmL^−1 TNF-α) was added to every well. Using libraries of compounds dissolved in DMSO and a CyBi-Well pin-transfer robot (CyBio Corp.), 0.1 μL of each compound was added. After 48 h, medium was removed and 20 μL of CellTiter-Glo reagent was added. Luminescence was measured after 10 min of incubation using an EnVision plate reader (PerkinElmer).
Instrument output files were processed using Pipeline Pilot (Accelrys) and input to MATLAB (The MathWorks) for data normalization. Compound performance scores relative to a distribution of mock-treated (DMSO) wells were calculated using a revised version of the scoring system underlying ChemBank. (Seiler et al., Nucleic Acids Res. 36, D351-359, 2008). The role of replicate treatments was further developed as follows: first, mock-treatment distributions were modeled using all mock-treated wells measured on a single day, regardless of their nominal replicate; second, per-compound scores weighted each in-plate background-subtracted measurement by the uncertainty in that measurement, using the method of maximum likelihood. The uncertainty in a single background-subtracted measurement was estimated using the number of mock-treated wells on the plate and, as a measure of the assay noise, the standard deviation of the per-day mock-treatment distribution. The signal, a weighted average of differences, was scaled by the noise, the standard deviation of the mock treatment distribution.
INS-1E cells were seeded at 10,000 cells/well using a Multidrop Combi (Thermo Labsystems) in white optical 384-well plates (Corning Life Sciences). After overnight incubation, medium was removed and 50 μL RPMI containing the treated compound, 1% FBS and a combination of cytokines (10 ng/mL IL-1β, 50 ng/mL IFN-γ, 25 ng/mL TNF-α) was added to every well. After incubation for 48 hr, medium was removed and 20 μL CellTiter-Glo reagent was added. Luminescence was measured after 10-min incubation using an EnVision plate reader (PerkinElmer).
In general terms: Cellular ATP, detected with luciferase, serves as a proxy for viable cell number.

[3] abbreviates: INS-1E cells, cytokines IL-1β, IFN-γ, TNF-α, 48 h, CellTiter-Glo, read-out: CTG EC50 in HTS.
The mark [4] stands for this setting: Rattus norvegicus, INS-1E cells, cytokines IL-1β, IFN-γ, TNF-α, 48 h, CellTiter-Glo, read-out: CTG EC50 in HTS.

In the case of `C[C@@H]1CN([C@@H](C)CO)C(=O)c2cccc(NC(=O)Nc3cccc4ccccc34)c2O[C@H]1CN(C)S(=O)(=O)c1ccc2c(c1)CCC(=O)N2` [Compound 14A], the EC50 in assay [1] and in assay [2] (setting [3]) was more than 25 µM in each case.
Consider `COc1ccc(S(=O)(=O)N(C)C[C@@H]2Oc3c(NC(=O)Nc4cc(F)cc5c4OCOC5)cccc3C(=O)N([C@@H](C)CO)C[C@H]2C)cc1` [Compound 48A], for which the EC50 in assay [1] and in assay [2] (setting [3]) was more than 25 µM each time.
With `C[C@@H]1CN([C@@H](C)CO)C(=O)c2cccc(NC(=O)Nc3cccc4ccccc34)c2O[C@H]1CN(C)S(=O)(=O)c1cccc(F)c1` [Compound 7A], the EC50 in assay [1] and in assay [2] (setting [3]) was more than 25 µM in each case.
Turning to `COc1ccc(S(=O)(=O)N(C)C[C@@H]2Oc3c(NC(=O)Nc4cccc5ccccc45)cccc3C(=O)N([C@@H](C)CO)C[C@H]2C)cc1C` [Compound 20A, N-(((2R,3R)-5-((S)-1-hydroxypropan-2-yl)-3-methyl-10-(3-(naphthalen-1-yl)ureido)-6-oxo-3,4,5,6-tetrahydro-2H-benzo[b][1,5]oxazocin-2-yl)methyl)-4-methoxy-N,3-dimethylbenzenesulfonamide], the EC50 was more than 0.1 µM in assay [1] (Rattus norvegicus); 0.314 µM in assay [2] (Rattus norvegicus, INS-1E, assay not named, read-out: EC50); more than 0.1 µM in assay [2] (setting [4]).
Regarding `C[C@@H]1CN([C@@H](C)CO)C(=O)c2cccc(NC(=O)Nc3cccc4ccccc34)c2O[C@H]1CN(C)S(=O)(=O)c1ccc2c(n1)N(C)CCO2` [Compound 26A], the EC50 in assay [1] and in assay [2] (setting [3]) was more than 25 µM throughout.
Turning to `COc1cccc(S(=O)(=O)N(C)C[C@@H]2Oc3c(NC(=O)Nc4cccc5ccccc45)cccc3C(=O)N([C@@H](C)CO)C[C@H]2C)c1` [Compound 18A], the EC50 in assay [1] and in assay [2] (setting [3]) was more than 25 µM throughout.
In the case of `COc1ccc(S(=O)(=O)N(C)C[C@@H]2Oc3c(NC(=O)Nc4cccc5ccccc45)cccc3C(=O)N([C@@H](C)CO)C[C@H]2C)c(OC)c1` [Compound 19A], the EC50 in assay [1] and in assay [2] (setting [3]) was more than 25 µM throughout.
Consider `C[C@@H]1CN([C@@H](C)CO)C(=O)c2cccc(NC(=O)Nc3cccc4ccccc34)c2O[C@H]1CN(C)S(=O)(=O)c1ccc2c(c1)OCC2` [Compound 24A], for which the EC50 in assay [1] and in assay [2] (setting [3]) was more than 25 µM in each case.
`C[C@@H]1CN([C@@H](C)CO)C(=O)c2cccc(NC(=O)Nc3ccccc3)c2O[C@H]1CN(C)S(=O)(=O)c1ccc(Cl)cc1` [Compound 31A]: the EC50 in assay [1] and in assay [2] (setting [3]) was more than 20 µM in each case.
`COc1ccc(S(=O)(=O)N(C)C[C@@H]2Oc3c(NC(=O)Nc4ccccc4)cccc3C(=O)N([C@@H](C)CO)C[C@H]2C)cc1` [Compound 33A]: the EC50 in assay [1] and in assay [2] (setting [3]) was more than 25 µM each time.
`Cc1ccc(S(=O)(=O)N(C)C[C@@H]2Oc3c(NC(=O)Nc4cccc5c4ccn5C)cccc3C(=O)N([C@@H](C)CO)C[C@H]2C)cc1` [Compound 3A, N-(((2R,3R)-5-((S)-1-hydroxypropan-2-yl)-3-methyl-10-(3-(1-methyl-1H-indol-4-yl)ureido)-6-oxo-3,4,5,6-tetrahydro-2H-benzo[b][1,5]oxazocin-2-yl)methyl)-N,4-dimethylbenzenesulfonamide]: the EC50 in assay [1] (Rattus norvegicus) was more than 10 µM; in assay [2] (setting [4]) it was more than 25 µM.
Consider `COc1ccc(S(=O)(=O)N(C)C[C@@H]2Oc3c(NC(=O)Nc4ccc5c(c4)OCCO5)cccc3C(=O)N([C@@H](C)CO)C[C@H]2C)cc1` [Compound 47A], for which the EC50 in assay [1] and in assay [2] (setting [3]) was more than 25 µM throughout.
In the case of `COc1ccc(S(=O)(=O)N(C)C[C@@H]2Oc3c(NC(=O)Nc4cccc(Cl)c4Cl)cccc3C(=O)N([C@@H](C)CO)C[C@H]2C)cc1` [Compound 32A, N-(((2R,3R)-10-(3-(2,3-Dichlorophenyl)ureido)-5-((S)-1-hydroxypropan-2-yl)-3-methyl-6-oxo-3,4,5,6-tetrahydro-2H-benzo[b][1,5]oxazocin-2-yl)methyl)-4-methoxy-N-methylbenzenesulfonamide], the 50% effective concentration (EC50) was more than 25 µM in assay [1] (Rattus norvegicus) and more than 20 µM in assay [2] (setting [4]).
Turning to `COc1ccc(S(=O)(=O)N(C)C[C@@H]2Oc3c(NC(=O)Nc4cccc5c4CCCC5)cccc3C(=O)N([C@@H](C)CO)C[C@H]2C)cc1` [Compound 43A], the EC50 in assay [1] and in assay [2] (setting [3]) was more than 25 µM in each case.
On to `C[C@@H]1CN([C@@H](C)CO)C(=O)c2cccc(NC(=O)Nc3cccc4ccccc34)c2O[C@H]1CN(C)S(=O)(=O)c1ccc(-c2ccccc2)cc1` [Compound 13A], for which the EC50 in assay [1] and in assay [2] (setting [3]) was more than 25 µM each time.
Take `C[C@@H]1CN([C@@H](C)CO)C(=O)c2cccc(NC(=O)Nc3cccc4ccccc34)c2O[C@H]1CN(C)S(=O)(=O)c1ccc(Cl)cc1` [Compound 5A]: the EC50 in assay [1] is more than 25 µM; in assay [2] (setting [3]), more than 0.1 µM.
Taken in the same sequence, the figures for `COc1ccc(S(=O)(=O)N(C)C[C@@H]2Oc3c(NC(=O)Nc4cc(F)ccc4F)cccc3C(=O)N([C@@H](C)CO)C[C@H]2C)cc1` [Compound 41A] were more than 25 µM and more than 25 µM.
Taken in the same sequence, the figures for `COc1ccc(S(=O)(=O)N(C)C[C@@H]2Oc3c(NC(=O)c4cccc5ccccc45)cccc3C(=O)N([C@@H](C)CO)C[C@H]2C)cc1` [Compound 35A] were more than 25 µM and more than 25 µM.
Taken in the same sequence, the figures for `C[C@@H]1CN([C@@H](C)CO)C(=O)c2cccc(NC(=O)Nc3cccc4ccccc34)c2O[C@H]1CN(C)S(=O)(=O)c1ccc2c(c1)oc(=O)n2C` [Compound 15A] were more than 25 µM and more than 25 µM.
On to `C[C@@H]1CN([C@@H](C)CO)C(=O)c2cccc(NC(=O)Nc3cccc4ccccc34)c2O[C@H]1CN(C)S(=O)(=O)c1ccc2c(c1)OCO2` [Compound 23A], for which the EC50 in assay [1] and in assay [2] (setting [3]) was more than 25 µM each time.
Turning to `COc1ccc(S(=O)(=O)N(C)C[C@@H]2Oc3c(NC(=O)Nc4cccc(-c5ncccn5)c4)cccc3C(=O)N([C@@H](C)CO)C[C@H]2C)cc1` [Compound 39A], the EC50 in assay [1] and in assay [2] (setting [3]) was more than 25 µM each time.
Consider `COc1ccc(S(=O)(=O)N(C)C[C@@H]2Oc3c(NC(=O)Nc4cccc(-c5ccccc5)c4)cccc3C(=O)N([C@@H](C)CO)C[C@H]2C)cc1` [Compound 40A], for which the EC50 in assay [1] and in assay [2] (setting [3]) was more than 25 µM in each case.
As to `Cc1ccc(S(=O)(=O)N(C)C[C@@H]2Oc3c(NC(=O)Nc4ccc(F)cc4)cccc3C(=O)N([C@H](C)CO)C[C@H]2C)cc1` [Compound 37B], the EC50 in assay [2] (setting [3]) is more than 25 µM.
On to `C[C@@H]1CN([C@@H](C)CO)C(=O)c2cccc(NC(=O)Nc3cccc4ccccc34)c2O[C@H]1CN(C)S(=O)(=O)c1ccc2c(c1)OCCCO2` [Compound 25A], for which the EC50 in assay [1] and in assay [2] (setting [3]) was more than 25 µM throughout.
`C[C@@H]1CN([C@@H](C)CO)C(=O)c2cccc(NC(=O)Nc3ccc(F)cc3)c2O[C@H]1CN(C)S(=O)(=O)c1ccc(Cl)cc1` [Compound 30A, 4-Chloro-N-(((2R,3R)-10-(3-(4-fluorophenyl)ureido)-5-((S)-1-hydroxypropan-2-yl)-3-methyl-6-oxo-3,4,5,6-tetrahydro-2H-benzo[b][1,5]oxazocin-2-yl)methyl)-N-methylbenzenesulfonamide]: the EC50 in assay [1] (Rattus norvegicus) and in assay [2] (setting [4]) was more than 25 µM each time.
As for `COc1ccc(S(=O)(=O)N(C)C[C@@H]2Oc3c(NC(=O)Nc4cccc5ccccc45)cccc3C(=O)N([C@@H](C)CO)C[C@H]2C)cc1Cl` [Compound 11A], the results for the EC50 in assay [1] and in assay [2] (setting [3]) were more than 25 µM and more than 10 µM, respectively.
Taken in the same sequence, the figures for `COc1ccc(S(=O)(=O)N(C)C[C@@H]2Oc3c(NC(=O)Nc4cccc5ccccc45)cccc3C(=O)N([C@@H](C)CO)C[C@H]2C)cc1F` [Compound 10A] were more than 25 µM and more than 20 µM.
Consider `C[C@@H]1CN([C@@H](C)CO)C(=O)c2cccc(NC(=O)Nc3cccc4ccccc34)c2O[C@H]1CN(C)S(=O)(=O)c1ccccc1F` [Compound 8A], for which the concentration for a half-maximal effect (EC50) in assay [1] and in assay [2] (setting [3]) was more than 25 µM in each case.
For `COc1ccc(S(=O)(=O)N(C)C[C@@H]2Oc3c(NC(=O)c4cc(C)nn4C)cccc3C(=O)N([C@@H](C)CO)C[C@H]2C)cc1` [Compound 34A], the EC50 in assay [1] and in assay [2] (setting [3]) was more than 25 µM throughout.
